The experiment deals with wound site. Description: Hydroxyproline (OHP) content of subcutaneous PVA sponges fed by mini-osmotic pump at a dorsal skin incision, index of wound reparative collagen accumulation. To be noted: for OHP (collagen synthesis): day 14 post-wounding, mean±SEM. It counts as in vivo, rats. How it is done:
Twenty-eight (28) male adult rats were obtained from a commercial breeder. Rats were housed individually in stainless steel cages at a constant temperature (25°±1° C.) and relative humidity (40-50%). The cages were kept in a room with a twelve-hour light-twelve-hour dark cycle. All animals were allowed at least one week of acclimatization to the laboratory conditions prior to use in the experiments. During this time, they were fed a standard laboratory chow and drank tap water ad libitum.
After the period of acclimatization, the rats were randomly placed into four groups, seven rats per group. Under pentobarbital anesthesia, their backs were shaved and scrubbed with an organic iodine solution and a dorsal skin incision was made. Subcutaneously at the skin incision, a mini-osmotic pump (model 2002, 0.5 μl/hr, Alzet Co.) attached to a polyvinyl alcohol sponge was inserted. Pumps were filled either with PBS or various solutions of arginine in PBS as indicated on Table 1. The rats tolerated the procedure well and recovered uneventfully.
The 1M solution delivers 2 mg/animal/day into the sponge. On the fourteenth day post-wounding, rats were sacrificed with an overdose of pentobarbital. The pelt containing the healing scar was excised. The PVA sponges were removed, carefully cleared of surrounding tissue and frozen at −20° C. for subsequent determination of hydroxyproline content as an index of wound reparative collagen accumulation using the method of Woessner. See J. Woessner, Determination of Hydroxproline in Tissue and Protein Samples Containing Small Proportions of this Amino Acid, Biochem. Biophys., Vol.93, p. 440 (1961).
Twenty (20) male adult rats were obtained from a commercial breeder. As in Experimental Example 1, rats were housed individually in stainless steel cages at a constant temperature (25°±1° C.) and relative humidity (40-50%). The cages were kept in a room with a twelve hour light-twelve hour dark cycle. All animals were allowed at least one week of acclimatization to the laboratory conditions prior to use in the experiments. During this time, they were fed a standard laboratory chow and drank tap water ad libitum.
After the period of acclimatization, the rats were randomly placed into two groups of ten rats. Under pentobarbital anesthesia, the rats' backs were shaved and scrubbed with an organic iodine solution and a dorsal skin incision was made. As in Experimental Example 1, a mini-osmotic pump (model 2002, 0.5 μl/hr, Alzet Co.) attached to a polyvinyl alcohol sponge was inserted subcutaneously at the incision site. Pumps were filled either with PBS or a solution of 1M arginine in PBS as indicated on Table 3. The rats tolerated the procedure well and recovered uneventfully.
Twenty-one (21) male adult rats were obtained from a commercial breeder. As in Example Experiments 1 and 2, rats were housed individually in stainless steel cages at a constant temperature (25°±1° C.) and relative humidity (40-50%). The cages were kept in a room with a twelve hour light-twelve hour dark cycle. All animals were allowed at least one week of acclimatization to the laboratory conditions prior to use in the experiments. During this time, they were fed a standard laboratory chow and drank tap water ad libitum.
After the period of acclimatization, the rats were randomly placed into two groups, eight (8) rats were placed into Group 1 and treated with PBS only and thirteen (13) rats were placed into Group 2 and treated with 1M omithine in PBS. Under pentobarbital anesthesia, the rats' backs were shave and scrubbed with an organic iodine solution and a dorsal skin incision was made. Subcutaneously at the skin incision, a mini-osmotic pump (model 2002, 0.5 μl/hr, Alzet Co.) attached to a polyvinyl alcohol sponge was inserted. The mini-osmotic pumps were filled either with PBS or a solution of 1M omithine in PBS as indicated on Table 5 below. The rats tolerated the procedure well and recovered uneventfully. […]

A value given as a limit tells only on which side of the number the result lay.

Consider `NCCC[C@H](N)C(=O)O` [Ornithine, ornithine], for which the “increase in collagen biosynthesis accumulation compared to the PBS (control) group” value (Experimental Example 3, ornithine 1M) was “over 45%”. For the same compound, the “OHP (collagen synthesis)” value (Experimental Example 3, ornithine 1 M in PBS by mini-osmotic pump, PBS control 588 ± 45) worked out at 854 ± 71 μg/100 mg sponge.
Take `N=C(N)NCCC[C@H](N)C(=O)O` [Arginine, arginine]: the “increase in collagen biosynthesis accumulation compared to the PBS (control) group” value is no less than 10% (Experimental Example 1, arginine 0.01M); no less than 10% (Experimental Example 1, arginine 0.1M); “over 60%” (Experimental Example 1, arginine 1M); “over 30%” (Experimental Example 2, arginine 1M). Moreover, the “OHP (collagen synthesis)” value (Experimental Example 1, arginine 0.01 M in PBS by mini-osmotic pump, PBS control 569 ± 27) came out at 633 ± 54 μg/100 mg sponge; the “OHP (collagen synthesis)” value (Experimental Example 1, arginine 0.1 M in PBS by mini-osmotic pump, PBS control 569 ± 27) is given as 698 ± 74 μg/100 mg sponge; the “OHP (collagen synthesis)” value (Experimental Example 1, arginine 1 M in PBS by mini-osmotic pump (2 mg/animal/day), PBS control 569 ± 27) was 928 ± 55 μg/100 mg sponge; the “OHP (collagen synthesis)” value (Experimental Example 2, arginine 1 M in PBS by mini-osmotic pump (2 mg/animal/day), PBS control 574 ± 43) worked out at 797 ± 48 μg/100 mg sponge.

These data come from patent US20030091601A1, “Use of topical arginine to enhance wound healing” (ABAT Inc., priority 2001, published 2003).
